≈ marks a conversion by molar mass, not a printed value.
Assays:
Staphylococcus aureus [1] = assay: Antimicrobial activity against Staphylococcus aureus isolate 629 by Etest; type: functional
Staphylococcus aureus [2] = assay: Antimicrobial activity against Staphylococcus aureus isolate 703 harboring mprF C884A mutant gene by Etest; type: functional
Staphylococcus aureus [3] = assay: microbe, parasite or virus in culture; conditions: isolate 616
Description: Antimicrobial activity against Staphylococcus aureus isolate 616 by Etest

Staphylococcus aureus [4] = assay: Antimicrobial activity against Staphylococcus aureus isolate 701 harboring mprF C884A mutant gene by Etest; type: functional

Structure (SMILES): CCCCCCCCCC(=O)N[C@@H](Cc1c[nH]c2ccccc12)C(=O)N[C@H](CC(N)=O)C(=O)N[C@@H](CC(=O)O)C(=O)N[C@@H]1C(=O)NCC(=O)N[C@@H](CCCN)C(=O)N[C@@H](CC(=O)O)C(=O)N[C@H](C)C(=O)N[C@@H](CC(=O)O)C(=O)NCC(=O)N[C@H](CO)C(=O)N[C@@H]([C@H](C)CC(=O)O)C(=O)N[C@@H](CC(=O)c2ccccc2N)C(=O)O[C@@H]1C
- MIC (Staphylococcus aureus [1]): 0.75 µg/mL (≈ 0.463 µM)
- MIC (Staphylococcus aureus [2]): 2 µg/mL (≈ 1.23 µM)
- MIC (Staphylococcus aureus [3]): 0.5 µg/mL (≈ 0.309 µM)
- MIC (Staphylococcus aureus [4]): 2 µg/mL (≈ 1.23 µM)
